The values that follow come from patent US20240342159A1, “VALBENAZINE FOR USE IN THE ADD-ON TREATMENT OF SCHIZOPHRENIA” (Neurocrine Biosciences, Inc., priority 2021, published 2024).

Series [1] is described as follows: embryo/fetal development study, rats. The class given is in vivo, rat. The note with it: rat, in vivo. The procedure:
(§1) The NOAEL for embryo/fetal development in rats and rabbits was 15 mg/kg/day and 50 mg/kg/day, respectively. […] Valbenazine was negative in genotoxicity assays (in vitro Ames and chromosomal aberration assays and an in vivo rat micronucleus test).

Series [2] concerns rats. Put plainly: embryo/fetal development study, rats. In kind it is in vivo, rat. As for the experimental part:
as §1

Series [3] deals with panel of other drug transporters. Put plainly: inhibition of a panel of other drug transporters. In kind it is in vitro ADME.
The subject of the next series is dogs. Put plainly: repeat-dose nonclinical toxicology study, dog. The class given is in vivo.
The nature of a further series: rat fertility study. The note with it: rat, in vivo. The class given is in vivo.
A further series concerns rat fertility. Put plainly: rat fertility study. The class given is in vivo. The note with it: 10 mg/kg/day.
The subject of series [4] is valbenazine-treated subjects. Put plainly: serious adverse events and deaths in the entire valbenazine clinical development program. In kind it is in vivo, human. The text has this: (§2) Common treatment-emergent adverse events (TEAEs) in pediatric subjects with TS with incidence >5% in the valbenazine treatment groups and with a higher incidence than placebo include headache, somnolence, sedation, upper respiratory tract infection, insomnia, fatigue, vomiting, and suicidal ideation. In the entire valbenazine clinical development program as of 10 Apr. 2021, treatment-emergent serious adverse events (SAEs) occurring in 3 or more valbenazine-treated subjects each were schizophrenia, suicidal ideation, chronic obstructive pulmonary disease, syncope, abdominal pain, depression, mental status changes, and schizoaffective disorder.
Ten deaths have been reported in completed and ongoing valbenazine studies conducted by NBI: 9 occurred in adult subjects with TD and 1 adult subject with HD. Eight deaths occurred in subjects taking valbenazine, 1 occurred in a subject taking placebo, and 1 remains blinded.

The nature of series [5]: in vitro Ames genotoxicity assay. The class given is cell-based. The procedure: as §1
The test system of the next series is rabbits. Put plainly: embryo/fetal development study, rabbits. In kind it is in vivo, rabbit. As for the experimental part:
as §1

The nature of series [6]: embryo/fetal development study, rabbits. In kind it is in vivo, rabbit. The conditions noted are these: rabbit, in vivo. The procedure:
as §1

Series [7] has as its system rats. Put plainly: repeat-dose nonclinical toxicology study, rat. In kind it is in vivo.
The subject of series [8] is cytochrome P450 (CYP) enzyme. Put plainly: cytochrome P450 (CYP) enzyme inhibition or induction. The conditions noted are these: at pharmacologically relevant concentrations. The class given is in vitro ADME.
Another series has as its system hemizygous Tg.rasH2 mice. Put plainly: carcinogenicity study, hemizygous Tg.rasH2 mice. The class given is in vivo, mouse.
Series [9] can be described thus: clinical safety signals (cardiovascular, laboratory, vital signs, serum prolactin, suicidality). In kind it is in vivo, human.
Series [10] concerns pediatric subjects with TS. Put plainly: treatment-emergent adverse events in pediatric subjects with Tourette Syndrome. The class given is in vivo, human. The note with it: higher incidence than placebo.
Excerpt: as §2

Series [11] can be described thus: metabolism of valbenazine by hydrolysis. The class given is in vitro ADME.
Another series deals with P-glycoprotein (Homo sapiens, UniProt P08183). Put plainly: P-glycoprotein inhibition. The class given is in vitro ADME. The note with it: only at concentrations that could be achieved in the gastrointestinal tract.
The next series deals with QT interval. Put plainly: QT interval prolongation in clinical use. In kind it is in vivo, human.
In the next series the test system is rat. Put plainly: in vivo rat micronucleus test. The procedure: as §1
The test system of the next series is mice. Put plainly: repeat-dose nonclinical toxicology study, mouse. The class given is in vivo.
Series [12] in a line: central nervous system, respiratory and cardiovascular safety pharmacology studies. In kind it is in vivo. The note with it: compared with human exposure.
The nature of series [13]: in vitro chromosomal aberration assay. In kind it is cell-based. The procedure:
as §1

In another series the test system is adults with TD. Put plainly: adverse reactions in 3 placebo-controlled studies in adults with tardive dyskinesia. The class given is in vivo, human. The conditions noted are these: 6-week treatment.
Series [14] has as its system rats. Put plainly: carcinogenicity study, rats. The class given is in vivo, rat.
Another series has as its target CYP2D6 (Homo sapiens, UniProt P10635). Put plainly: metabolism of NBI-98782 by CYP2D6. The class given is in vitro ADME.

CYP2D6, sequence (P10635 whole entry): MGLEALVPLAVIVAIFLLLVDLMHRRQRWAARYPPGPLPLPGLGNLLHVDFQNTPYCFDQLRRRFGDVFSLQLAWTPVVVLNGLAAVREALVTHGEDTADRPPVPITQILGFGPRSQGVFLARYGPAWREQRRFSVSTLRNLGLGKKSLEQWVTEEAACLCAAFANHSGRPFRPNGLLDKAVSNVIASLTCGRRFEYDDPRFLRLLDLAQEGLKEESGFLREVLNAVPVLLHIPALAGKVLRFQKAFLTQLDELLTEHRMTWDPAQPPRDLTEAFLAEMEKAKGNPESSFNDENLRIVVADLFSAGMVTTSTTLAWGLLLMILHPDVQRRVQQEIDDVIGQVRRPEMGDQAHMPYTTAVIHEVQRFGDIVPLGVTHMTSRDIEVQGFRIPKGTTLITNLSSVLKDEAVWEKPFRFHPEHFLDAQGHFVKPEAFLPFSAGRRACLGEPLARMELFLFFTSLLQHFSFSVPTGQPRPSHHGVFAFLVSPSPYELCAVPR
P-glycoprotein, sequence (P08183 whole entry): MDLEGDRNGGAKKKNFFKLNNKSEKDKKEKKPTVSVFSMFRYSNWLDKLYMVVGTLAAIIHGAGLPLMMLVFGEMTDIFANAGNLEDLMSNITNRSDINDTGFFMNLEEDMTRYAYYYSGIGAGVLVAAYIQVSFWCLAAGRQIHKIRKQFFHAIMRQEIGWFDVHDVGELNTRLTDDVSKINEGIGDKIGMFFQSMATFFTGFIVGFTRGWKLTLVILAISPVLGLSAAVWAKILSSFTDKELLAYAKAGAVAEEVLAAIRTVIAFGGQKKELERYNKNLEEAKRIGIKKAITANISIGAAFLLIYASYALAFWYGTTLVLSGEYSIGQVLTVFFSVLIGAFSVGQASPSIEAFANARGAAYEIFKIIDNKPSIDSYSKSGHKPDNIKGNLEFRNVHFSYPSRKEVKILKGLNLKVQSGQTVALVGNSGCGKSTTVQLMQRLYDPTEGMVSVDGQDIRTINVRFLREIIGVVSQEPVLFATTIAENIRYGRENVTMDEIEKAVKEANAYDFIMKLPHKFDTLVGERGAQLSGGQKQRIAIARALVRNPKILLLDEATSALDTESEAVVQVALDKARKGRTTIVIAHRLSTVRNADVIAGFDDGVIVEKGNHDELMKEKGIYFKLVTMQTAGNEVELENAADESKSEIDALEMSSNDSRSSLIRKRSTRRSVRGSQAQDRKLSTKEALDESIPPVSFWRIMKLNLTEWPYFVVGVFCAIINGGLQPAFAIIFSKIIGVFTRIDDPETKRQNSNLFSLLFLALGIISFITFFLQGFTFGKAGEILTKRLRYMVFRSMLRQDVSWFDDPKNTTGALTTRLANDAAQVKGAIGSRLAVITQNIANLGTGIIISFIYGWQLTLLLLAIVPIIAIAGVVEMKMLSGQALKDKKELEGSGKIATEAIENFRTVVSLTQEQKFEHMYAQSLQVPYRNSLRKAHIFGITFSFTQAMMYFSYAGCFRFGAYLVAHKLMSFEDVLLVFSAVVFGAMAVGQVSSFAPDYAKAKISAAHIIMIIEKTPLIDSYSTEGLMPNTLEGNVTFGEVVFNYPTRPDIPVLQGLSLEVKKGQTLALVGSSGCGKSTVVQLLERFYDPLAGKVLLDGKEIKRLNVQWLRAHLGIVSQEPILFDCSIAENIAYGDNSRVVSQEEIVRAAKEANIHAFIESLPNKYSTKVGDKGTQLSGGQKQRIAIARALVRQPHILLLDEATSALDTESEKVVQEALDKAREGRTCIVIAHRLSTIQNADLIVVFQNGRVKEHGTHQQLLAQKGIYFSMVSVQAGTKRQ

With `COc1cc2c(cc1OC)[C@H]1C[C@@H](OC(=O)[C@@H](N)C(C)C)[C@H](CC(C)C)CN1CC2` [Valbenazine, L-valine, (2R,3R,11bR)-1,3,4,6,7,11b-hexahydro-9,10-dimethoxy-3-(2-methylpropyl)-2H-benzo[a]quinolizin-2-yl ester], the results for the NOAEL (in [1]; in the series “rat fertility study”; in series [6]) were 15 mg/kg/day, 3 mg/kg/day and 50 mg/kg/day, respectively. In addition, the teratogenicity entry in the series on rats [2] and in the series with rabbits was “no evidence of teratogenicity” in each case. In addition, the “inhibition of a panel of other drug transporters” value in series [3] was “not an inhibitor”. Further, the “dose with no adverse effects, repeat-dose toxicology” value with dogs was found to be 15 mg/kg/day; in the series with rats [7], 3 mg/kg/day; with mice, 60 mg/kg/day. In addition, the “effect on rat fertility” value in the series with rat fertility was “modest negative effect”. Moreover, in series [4] (all ten deaths), the “relationship of deaths to study drug” value was “not related or unlikely related”. Besides, the “deaths in subjects taking valbenazine” value in [4] (of ten deaths in completed and ongoing studies) is recorded as “Eight”. Further, the “genotoxicity, Ames assay” value in series [5] is on record as “negative”. In [8], the “CYP enzyme inhibition or induction” value is “little or no cytochrome P450 (CYP) enzyme inhibition or induction”. Moreover, the “tumors in carcinogenicity study” value in the series on hemizygous Tg.rasH2 mice and in the series on rats [14] was “did not increase tumors” throughout. Besides, the “cardiovascular, laboratory or vital sign related safety signals” value in series [9] (human, in vivo) is on record as “No cardiovascular, laboratory, or vital sign related safety signals”. The suicidality entry in [9] (human, in vivo) is “does not appear to increase suicidality”. Further, the serum prolactin result in series [9] (mean changes with placebo considerably smaller) is reported as “Increases in serum prolactin above normal laboratory ranges”. In addition, the “incidence of common TEAEs: headache, somnolence, sedation, upper respiratory tract infection, insomnia, fatigue, vomiting, suicidal ideation” value in series [10] is reported as over 5%. Further, the metabolic pathway result in [11] is given as “metabolized by hydrolysis to NBI-98782”. Moreover, on P-glycoprotein, the “inhibition of P-glycoprotein” value is “moderate inhibitor”. For the same compound, the “degree of QT prolongation” value with QT interval (at concentrations expected with recommended dosing) was “not clinically significant”. Besides, the “QT prolongation with higher valbenazine concentrations” value in the series with QT interval (subjects taking a strong CYP2D6 or CYP3A4 inhibitor, or CYP2D6 poor metabolizers) is on record as “QT prolongation clinically significant”. Further, in the series with rat, the “genotoxicity, rat micronucleus test” value is on record as “negative”. Also, the “systemic exposures at the NOAEL in safety pharmacology studies” value in series [12] is given as “above those achieved at the highest proposed therapeutic dose in humans”. Moreover, the “genotoxicity, chromosomal aberration assay” value in [13] is listed as “negative”. In the series with adults with TD, the “incidence of anticholinergic effects (dry mouth, constipation, disturbance in attention, vision blurred, urinary retention)” value amounted to 5.4%. Also, in the series with adults with TD, the “incidence of balance disorders/fall (fall, gait disturbance, dizziness, balance disorder)” value is on record as 4.1%. Also, the “incidence of somnolence (somnolence, fatigue, sedation)” value in the series on adults with TD is on record as 10.9%.
For the compound “(+)-α-3-isobutyl-9,10-dimethoxy-1,3,4,6,7,11b-hexahydro-2H-pyrido[2,1-a]isoquinolin-2-ol [NBI-98782]”, the “systemic exposures at the NOAEL in safety pharmacology studies” value in series [12] is on record as “above those achieved at the highest proposed therapeutic dose in humans”. The subsequent metabolism result on CYP2D6 is reported as “metabolized in part by CYP2D6”.
